Experimental data from patent US20020007060A1, “Reverse hydroxamate inhibitors of matrix metalloproteinases” (priority 1998, published 2002).
Structures can show the parent of a compound that is named as a salt.

First: N#Cc1ccc(-c2ccc(OCC(COc3ccccc3)N(O)C=O)cc2)cc1 (racemic) [Example 1, (±)-N-[1-[[(4′-cyano-[1,1′-biphenyl]-4-yl)oxy]methyl]-2-phenoxyethyl]-N-hydroxyformamide]
Second: Cc1ccc(CC(COc2ccc(-c3ccc(C#N)cc3)cc2)N(O)C=O)cc1 (racemic) [Example 10, (±)-N-[1-[[(4′-cyano-[1,1′-biphenyl]-4-yl)oxy]methyl]-2-(4-methylphenyl)ethyl]-N-hydroxyformamide]
The melting point of the first is lower: 133 to 135 °C for the first, 173 to 175 °C for the second.

First: CC(CS(=O)(=O)c1ccc(-c2ccc(C(F)(F)F)cc2)cc1)N(O)C=O (racemic) [Example 122, (±)-N-hydroxy-N-[1-methyl-2-[[4′-(trifluoromethyl)[1,1′-biphenyl]-4-yl]sulfonyl]ethyl]formamide]
Second: COCC(CS(=O)(=O)c1ccc(-c2ccc(C(F)(F)F)cc2)cc1)N(O)C=O (racemic) [Example 126, (±)-N-hydroxy-N-[1-(methoxymethyl)-2-[[4′-(trifluoromethyl)[1,1′-biphenyl]-4-yl]sulfonyl]ethyl]formamide]
The melting point of the first is lower: 174.6 to 175.2 °C for the first, 175.3 to 176.3 °C for the second.

First: CCC(CS(=O)(=O)c1ccc(-c2ccc(OC)cc2)cc1)N(O)C=O (stereo not drawn) [Example 75, N-[1-[[(4′-methoxyl[1,1′-biphenyl]-4-yl)sulfonyl]methyl]propyl]-N-hydroxyformamide]
Second: O=CN(O)C(CO)CS(=O)(=O)c1ccc(-c2ccc(Cl)cc2)cc1 (racemic) [Example 152, (±)-N-hydroxy-N-[1-(hydroxymethyl)-2-[(4′chloro[1,1′-biphenyl]-4-yl)sulfonyl]ethyl]formamide]
The melting point of the first is higher: 199 to 200 °C for the first, 153 to 154 °C for the second.

First: CC1(C)CC(=O)N(CC(CS(=O)(=O)c2ccc(-c3ccc(C(F)(F)F)cc3)cc2)N(O)C=O)C(=O)C1 (racemic) [Example 124, (±)-N-[1-[(4,4-dimethyl-2,6-dioxo-1-piperidinyl)methyl]-2-[[4′-(trifluoromethyl)[1,1′-biphenyl]-4-yl]sulfonyl]ethyl]-N-hydroxyformamide]
Second: CC1(C)NC(=O)N(CC(CS(=O)(=O)c2ccc(-c3ccc(OC(F)(F)F)cc3)cc2)N(O)C=O)C1=O (stereo not drawn) [Example 115, N-[1-[[[4′-(trifluoromethoxy)[1,1′-biphenyl]-4-yl]sulfonyl]methyl]-2-(4,4-dimethyl-2,5-dioxo-1-imidazolidinyl)ethyl]-N-hydroxyformamide]
The melting point of the first is lower: 185.6 to 187.3 °C for the first, 195 to 197 °C for the second.

Compared with `CS(=O)(=O)c1ccc(-c2ccc(S(=O)(=O)CC(CO)N(O)C=O)cc2)cc1` (racemic) [Example 148, (±)-N-hydroxy-N-[1-(hydroxymethyl)-2-[[4′-(methylsulfonyl)[1,1′-biphenyl]-4-yl]sulfonyl]ethyl]formamide], `CSc1ccc(-c2ccc(S(=O)(=O)CC(CO)N(O)C=O)cc2)cc1` (racemic) [Example 150, (±)-N-hydroxy-N-[1-(hydroxymethyl)-2-[[4′-(methylthio)[1,1′-biphenyl]-4-yl]sulfonyl]ethyl]formamide] is lower in melting point: 165 to 167 °C for the first, 161 to 162 °C for the second.

Compared with `O=CN(O)C(CCCO)CS(=O)(=O)c1ccc(-c2ccc(C(F)(F)F)cc2)cc1` (racemic) [Example 128, (±)-N-hydroxy-N-[4-hydroxy-1-[[[4′-(trifluoromethyl)[1,1′-biphenyl]-4-yl]sulfonyl]methyl]butyl]formamide], `O=CN(O)C(CCO)CS(=O)(=O)c1ccc(-c2ccc(C(F)(F)F)cc2)cc1` (racemic) [Example 125, (±)-N-hydroxy-N-[3-hydroxy-1-[[[4′-(trifluoromethyl)[1,1′-biphenyl]-4-yl]sulfonyl]methyl]propyl]formamide] is higher in melting point: 138.9 to 140.3 °C for the first, 186.5 to 188.8 °C for the second.

First: CC(CS(=O)(=O)c1ccc(Oc2ccc(Cl)cc2)cc1)N(O)C=O (stereo not drawn) [Example 74, N-[1-[[[4-(4-chlorophenoxy)phenyl]sulfonyl]methyl]ethyl]-N-hydroxyformamide]
Second: CC(CS(=O)(=O)c1ccc(-c2ccc(Cl)cc2)cc1)N(O)C=O (stereo not drawn) [Example 72, N-[1-[[(4′-chloro[1,1′-biphenyl]-4-yl)sulfonyl]methyl]ethyl]-N-hydroxyformamide]
The melting point of the first is lower: 144 to 145 °C for the first, 178 to 180 °C for the second.

First: CC(CS(=O)(=O)c1ccc(-c2ccc3c(c2)OCO3)cc1)N(O)C=O (stereo not drawn) [Example 73, N-[1-[[[4-(1,3-benzodioxol-5-yl)phenyl]sulfonyl]methyl]ethyl]-N-hydroxyformamide]
Second: O=CN(O)C(CS(=O)(=O)c1ccc(-c2ccc(C(F)(F)F)cc2)cc1)c1ccc2c(c1)OCO2 (racemic) [Example 127, (±)-N-[1-(1,3-benzodioxol-5-yl)-2-[[4′-(trifluoromethyl)[1,1′-biphenyl]-4-yl]sulfonyl]ethyl]-N-hydroxyformamide]
The melting point of the first is higher: 200 to 201 °C for the first, 159.5 to 160.5 °C for the second.

First: CC1(C)CC(=O)N(CC(COc2ccc(-c3ccc(C#N)cc3)cc2)N(O)C=O)C(=O)C1 (stereo not drawn) (as salt: potassium) [Example 50, N-[1-[[(4′-cyano[1,1′-biphenyl]-4-yl)oxy]methyl]-2-(4,4-dimethyl-2,6-dioxo-1-piperidinyl)ethyl]-N-hydroxyformamide]
Second: CC1(C)NC(=O)N(CCC(COc2ccc(-c3ccc(C#N)cc3)cc2)N(O)C=O)C1=O (stereo not drawn) [Example 47, N-[1-[[(4′-cyano[1,1′-biphenyl]-4-yl)oxy]methyl]-3-(4,4-dimethyl-2,5-dioxo-1-imidazolidinyl)propyl]-N-hydroxyformamide]
The melting point of the first is lower: 121 °C for the first, 202 to 204 °C for the second.

Compared with `CN1C(=O)N(CC(COc2ccc(-c3cccc(C#N)c3)cc2)N(O)C=O)C(=O)C1(C)C` (stereo not drawn) [Example 39, N-[1-[[(3′-cyano[1,1′-biphenyl]-4-yl)oxy]methyl]-2-(3,4,4-trimethyl-2,5-dioxo-1-imidazolidinyl)ethyl]-N-hydroxyformamide], `CSc1ccc(-c2ccc(OCC(CN3C(=O)N(C)C(C)(C)C3=O)N(O)C=O)cc2)cc1` (stereo not drawn) [Example 40, N-[1-[[[4′-(methylthio)[1,1′-biphenyl]-4-yl]oxy]methyl]-2-(3,4,4-trimethyl-2,5-dioxo-1-imidazolidinyl)ethyl]-N-hydroxyformamide] is higher in melting point: 130 to 132 °C for the first, 172 to 174 °C for the second.

`CC(COc1ccc(-c2ccc(C#N)cc2)cc1)N(O)C=O` (racemic) [Example 13, (±)-N-[1-[[(4′-cyano-[1,1′-biphenyl]-4-yl)oxy]methyl]ethyl]-N-hydroxyformamide] and `N#Cc1ccc(-c2ccc(OCCN(O)C=O)cc2)cc1` [Example 15, N-[2-[(4′-cyano-[1,1′-biphenyl]-4-yl)oxy]ethyl]-N-hydroxyformamide] cannot be ordered by melting point: 141 to 144 °C for the first, 142 to 145 °C for the second.

First: O=CN(O)C(CO)CS(=O)(=O)c1ccc(Oc2ccc(OC(F)(F)F)cc2)cc1 (racemic) [Example 138, (±)-N-hydroxy-N-[1-(hydroxymethyl)-2-[[4-[4-(trifluoromethoxy)phenoxy]phenyl]sulfonyl]ethyl]formamide]
Second: O=CN(O)C(CO)CS(=O)(=O)c1ccc(-c2ccc(OC(F)(F)F)cc2)cc1 (racemic) [Example 151, (±)-N-hydroxy-N-[1-(hydroxymethyl)-2-[[4′-(trifluoromethoxy)[1,1′-biphenyl]-4-yl]sulfonyl]ethyl]formamide]
The melting point of the first is lower: 115 to 117 °C for the first, 167 to 168 °C for the second.

First: O=CN(O)C(CS(=O)(=O)c1ccc(-c2ccc(C(F)(F)F)cc2)cc1)c1ccccn1 (racemic) [Example 123, (±)-N-hydroxy-N-[1-(2-pyridinyl)-2-[[4′-(trifluoromethyl) [1,1′-biphenyl]-4-yl]sulfonyl]ethyl]formamide]
Second: O=CN(O)C(CS(=O)(=O)c1ccc(-c2ccc(OC(F)(F)F)cc2)cc1)c1ccccn1 (racemic) [Example 186, (±)-N-hydroxy-N-[1-(2-pyridinyl)-2-[[4′-(trifluoromethoxy)[1,1′-biphenyl]-4-yl]sulfonyl]ethyl]formamide]
The melting point of the first is higher: 168.5 to 168.9 °C for the first, 116.4 to 117.6 °C for the second.

First: O=CN(O)C(CS(=O)(=O)c1ccc(-c2ccc(C(F)(F)F)cc2)cc1)c1cccnc1 (racemic) [Example 120, (±)-N-hydroxy-N-[1-(3-pyridinyl)-2-[[4′-(trifluoromethyl)[1,1′-biphenyl]-4-yl]sulfonyl]ethyl]formamide]
Second: COCOc1ccc(C(CS(=O)(=O)c2ccc(-c3ccc(C(F)(F)F)cc3)cc2)N(O)C=O)cc1 (racemic) [Example 129, (±)-N-hydroxy-N-[1-[4-(methoxymethoxy)phenyl]-2-[[4′-(trifluoromethyl)[1,1′-biphenyl]-4-yl]sulfonyl]ethyl]formamide]
The melting point of the first is higher: 186.5 to 188.8 °C for the first, 137.1 to 138.5 °C for the second.

First: O=CN(O)C(COCc1ccccc1)CS(=O)(=O)c1ccc(-c2ccc(C(F)(F)F)cc2)cc1 (stereo not drawn) [Example 77, N-[1-[(phenylmethoxy)methyl]-2-[[4′-(trifluoromethyl)[1,1′-biphenyl]-4-yl]sulfonyl]ethyl]-N-hydroxyformamide]
Second: CN1C(=O)N(CC(CS(=O)(=O)c2ccc(Oc3ccc(C(F)(F)F)cc3)cc2)N(O)C=O)C(=O)C1(C)C (racemic) [Example 153, (±)-N-[1-[(2,5-dioxo-3,4,4-trimethyl-1-imidazolidinyl)methyl]-2-[[4-[4-(trifluoromethyl)phenoxy]phenyl]sulfonyl]ethyl]-N-hydroxyformamide]
The melting point of the first is higher: 172 °C for the first, 141 to 143 °C for the second.

First: CN1C(=O)N(CC(COc2ccc(-c3ccc(S(N)(=O)=O)cc3)cc2)N(O)C=O)C(=O)C1(C)C (stereo not drawn) [Example 114, N-[1-[[[4′-(aminosulfonyl)[1,1′-biphenyl]-4-yl]oxy]methyl]-2-(3,4,4-trimethyl-2,5-dioxo-1-imidazolidinyl)ethyl]-N-hydroxyformamide]
Second: N#Cc1ccc(-c2ccc(OCC(CN3C(=O)c4ccccc4C3=O)N(O)C=O)cc2)cc1 (racemic) [Example 3, (±)-N-[1-[[(4′-cyano-[1,1′-biphenyl]-4-yl)oxy]methyl]-2-(2,3-dihydro-1,3-dioxo-1H-isoindol-2-yl)ethyl]-N-hydroxyformamide]
The melting point of the first is higher: 203 to 205 °C for the first, 199 to 202 °C for the second.

`N#Cc1ccc(-c2ccc(OCC(c3ccc(F)cc3)N(O)C=O)cc2)cc1` (racemic) [Example 11, (±)-N-[2-[(4′-cyano-[1,1′-biphenyl]-4-yl)oxy]-1-(4-fluorophenyl)ethyl]-N-hydroxyformamide] showed a melting point of 194 to 196 °C.
